Data from paper PMC8151276, “An Integrated Approach toward NanoBRET Tracers for Analysis of GPCR Ligand Engagement” (Molecules, 2021).

Columns and labels:
Format in all cases: binding
PTGIR = molecular target: T1, PTGIR (Homo sapiens, UniProt P43119); assay: NanoBRET screen HiBiT-PTGIR in HEK293; details: PTGIR
T1 construct: purchased Promega (in-house HiBiT-GPCR construct library, NanoBRET)
Method: (§1) Each tracer candidate was screened across the entire library of HiBiT-GPCR constructs using NanoBRET as the detection modality. As depicted in Figure 4A, the specificity of interactions was evaluated through decrease in BRET due to competitive displacement of a bound tracer by excess parental compound. Each tracer was analyzed for binding to each HiBiT-GPCR fusion in the absence and in the presence of competing parental compound. Briefly, HEK293 cells were transfected with HiBiT-GPCR constructs diluted into promoterless DNA to reduce expression and maximize translocation to the cell surface. Each tracer candidate was then screened at concentrations of 1 μM and 0.1 μM across cells expressing these fusions. Cells were treated for 1.5 h with tracer either alone or in the presence of 20 μM competing parental compound (i.e., control). BRET was measured upon addition of purified LgBiT and subsequent complementation with HiBiT genetically fused to a GPCR. The specificity of interactions was assessed through a decrease in BRET signal due to competitive displacement of the bound tracer. To further gauge the robustness of these interactions, the fold response over the control (i.e., BRETtracer/BRETcontrol) was calculated. We chose a 1.5-fold response, which translates to ≥7-fold signal over noise as the minimal threshold required to score an interaction as positive. […]. Below we highlight the screening results obtained for our exemplary fluorescent tracers based on Clozapine, Amitriptyline and AZD1283.
(§2) HiBiT-GPCR DNA constructs were diluted in 10 mM Tris pH 8 to a final concentration of 0.01 μg/μL, arrayed in 96-well plates and stored at −20 °C. For transfection, HEK293 cells were suspended in Opti-MEM (without phenol red) supplemented with 2% fetal bovine serum (Seradigm) and 100 units/mL penicillin–streptomycin (Gibco) at a final concentration of 220,000 cells/mL and dispensed into white 96-well plates at 90 μL/well. Subsequent transfections and screens were carried using an Agilent Bravo Automated Liquid Handling Platform. First, the 96-well HiBiT DNA arrays were diluted 25-fold in Opti-MEM (without serum or phenol red) to a final concentration of 0.0004 μg/μL and 20 μL of the diluted DNAs were transferred into new 96-well plates. Next, promoterless carrier DNA (1 μg/μL) was diluted 25-fold (0.04 μg/μL) and then dispensed into the diluted arrays at 20 μL/well. Following brief mixing, Viafect transfection reagent (Promega) diluted 16-fold into Opti-MEM was dispensed into the plates at 40 μL/well. After mixing by pipetting, plates were incubated for 10 min on the pipetting station deck. The DNA-transfection reagent complexes were then added to plates containing cells. To facilitate the screen, 10 μL of DNA-transfection reagent complexes were added in duplicates to the top 4 and bottom 4 rows, resulting in two identical 48-well arrays per plate. Plates with transfected cells were incubated for 18–20 h at 37 °C/5% CO2. A screen of each tracer across the entire library using two different concentrations requires duplicate plates of transfected cells. Depending on the number of tracers being screened, transfections can be scaled up using the same ratios. The next day, for each tracer, four 20× screening solutions in tracer dilution buffer (Promega) were prepared: two duplicates at final concentration of 20 μM and two duplicates at a final concentration of 2 μM. A competing unmodified compound was added to one of each duplicate at a final concentration of 400 μM. The four resulting solutions were diluted 4-fold in Opti-MEM without serum or phenol red to generate 5× solutions (5 µM and 0.5 µM tracer +/− 100 μM competing compound). To screen the library, a BioTek MultiFlo FX liquid dispenser was used to dispense 22.5 µL of tracer solution to the top 4 rows and 22.5 µL tracer + competing compound solution to the 4 bottom rows. Plates were briefly mixed on an orbital shaker and incubated for 1.5 h at room temperature. […]

CYSLTR2 = molecular target: T2, CYSLTR2 (Homo sapiens, UniProt Q9NS75); assay: NanoBRET screen HiBiT-CYSLTR2 in HEK293; details: CYSLTR2
T2 construct: purchased Promega (in-house HiBiT-GPCR construct library, NanoBRET)
T2 sequence (Q9NS75 1-346): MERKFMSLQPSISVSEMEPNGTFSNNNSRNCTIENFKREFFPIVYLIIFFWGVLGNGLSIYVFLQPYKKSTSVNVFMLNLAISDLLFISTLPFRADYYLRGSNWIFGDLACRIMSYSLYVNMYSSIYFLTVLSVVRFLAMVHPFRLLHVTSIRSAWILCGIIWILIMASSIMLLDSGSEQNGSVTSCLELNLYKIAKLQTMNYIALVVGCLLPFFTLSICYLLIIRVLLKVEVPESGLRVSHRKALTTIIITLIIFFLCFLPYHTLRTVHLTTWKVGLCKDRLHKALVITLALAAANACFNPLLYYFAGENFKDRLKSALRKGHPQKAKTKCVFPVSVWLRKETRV
Method: as §1, §2

SMO = molecular target: T3, SMO (Homo sapiens, UniProt Q99835); assay: NanoBRET screen HiBiT-SMO in HEK293; details: SMO
T3 construct: purchased Promega (in-house HiBiT-GPCR construct library, NanoBRET)
T3 sequence (Q99835 28-787): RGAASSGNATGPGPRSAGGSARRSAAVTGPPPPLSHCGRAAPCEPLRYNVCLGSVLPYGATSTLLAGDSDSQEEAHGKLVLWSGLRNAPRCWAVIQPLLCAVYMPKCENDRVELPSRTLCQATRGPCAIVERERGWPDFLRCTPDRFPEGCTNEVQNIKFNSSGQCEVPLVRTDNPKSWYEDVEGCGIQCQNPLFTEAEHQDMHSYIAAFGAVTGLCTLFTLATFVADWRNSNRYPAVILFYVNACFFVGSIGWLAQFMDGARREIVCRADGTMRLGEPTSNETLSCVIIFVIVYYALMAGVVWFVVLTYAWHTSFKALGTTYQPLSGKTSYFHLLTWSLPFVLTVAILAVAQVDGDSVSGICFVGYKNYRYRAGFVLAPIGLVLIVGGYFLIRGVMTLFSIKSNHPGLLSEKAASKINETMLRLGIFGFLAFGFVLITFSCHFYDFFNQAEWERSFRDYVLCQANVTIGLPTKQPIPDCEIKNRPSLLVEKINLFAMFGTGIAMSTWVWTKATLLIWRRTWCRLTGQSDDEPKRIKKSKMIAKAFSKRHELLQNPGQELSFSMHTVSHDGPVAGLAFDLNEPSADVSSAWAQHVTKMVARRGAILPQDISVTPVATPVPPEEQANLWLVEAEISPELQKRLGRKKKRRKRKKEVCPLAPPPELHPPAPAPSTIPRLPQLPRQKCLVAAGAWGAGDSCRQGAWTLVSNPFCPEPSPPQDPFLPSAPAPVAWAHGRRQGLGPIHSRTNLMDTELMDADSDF
Method: as §1, §2

CCR4 = molecular target: T4, CCR4 (Homo sapiens, UniProt P51679); assay: NanoBRET screen HiBiT-CCR4 in HEK293; details: CCR4
T4 construct: purchased Promega (in-house HiBiT-GPCR construct library, NanoBRET)
T4 sequence (P51679 1-360): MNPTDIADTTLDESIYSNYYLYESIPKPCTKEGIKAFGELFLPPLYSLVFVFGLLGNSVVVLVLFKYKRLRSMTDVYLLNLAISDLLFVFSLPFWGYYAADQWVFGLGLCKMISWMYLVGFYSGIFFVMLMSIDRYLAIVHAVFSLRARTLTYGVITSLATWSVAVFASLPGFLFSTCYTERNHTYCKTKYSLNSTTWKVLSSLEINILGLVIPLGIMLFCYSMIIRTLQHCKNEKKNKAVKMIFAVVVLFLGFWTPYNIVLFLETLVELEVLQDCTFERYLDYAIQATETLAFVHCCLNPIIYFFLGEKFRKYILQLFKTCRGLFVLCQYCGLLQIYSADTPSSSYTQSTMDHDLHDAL
Method: as §1, §2

TBXA2R = molecular target: T5, TBXA2R (Homo sapiens, UniProt P21731); assay: NanoBRET screen HiBiT-TBXA2R in HEK293; details: TBXA2R
T5 construct: purchased Promega (in-house HiBiT-GPCR construct library, NanoBRET)
T5 sequence (P21731 1-343): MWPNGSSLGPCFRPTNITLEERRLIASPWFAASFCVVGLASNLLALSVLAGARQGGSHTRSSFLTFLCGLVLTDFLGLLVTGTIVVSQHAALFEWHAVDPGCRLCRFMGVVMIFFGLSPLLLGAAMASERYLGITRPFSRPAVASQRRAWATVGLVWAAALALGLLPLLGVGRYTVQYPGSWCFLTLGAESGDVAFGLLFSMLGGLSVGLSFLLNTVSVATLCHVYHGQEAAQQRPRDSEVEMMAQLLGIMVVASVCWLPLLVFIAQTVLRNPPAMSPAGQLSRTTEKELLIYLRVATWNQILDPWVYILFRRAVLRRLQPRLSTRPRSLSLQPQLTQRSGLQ
Method: as §1, §2

HRH3 = molecular target: T6, HRH3 (Homo sapiens, UniProt Q9Y5N1); assay: NanoBRET screen HiBiT-HRH3 in HEK293; details: HRH3
T6 construct: purchased Promega (in-house HiBiT-GPCR construct library, NanoBRET)
T6 sequence (Q9Y5N1 whole entry): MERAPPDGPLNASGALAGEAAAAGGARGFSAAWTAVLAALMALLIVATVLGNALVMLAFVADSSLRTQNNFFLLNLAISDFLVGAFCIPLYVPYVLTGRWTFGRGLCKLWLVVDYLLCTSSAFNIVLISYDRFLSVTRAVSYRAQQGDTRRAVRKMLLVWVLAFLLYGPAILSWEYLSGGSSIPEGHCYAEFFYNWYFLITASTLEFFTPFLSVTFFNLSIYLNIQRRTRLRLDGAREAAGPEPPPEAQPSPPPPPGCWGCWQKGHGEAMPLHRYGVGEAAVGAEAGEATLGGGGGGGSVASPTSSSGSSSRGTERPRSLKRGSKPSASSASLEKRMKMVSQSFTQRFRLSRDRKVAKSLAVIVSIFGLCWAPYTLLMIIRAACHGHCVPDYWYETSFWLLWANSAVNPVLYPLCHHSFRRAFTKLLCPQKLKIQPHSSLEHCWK
Method: as §1, §2

T1 sequence (P43119 whole entry): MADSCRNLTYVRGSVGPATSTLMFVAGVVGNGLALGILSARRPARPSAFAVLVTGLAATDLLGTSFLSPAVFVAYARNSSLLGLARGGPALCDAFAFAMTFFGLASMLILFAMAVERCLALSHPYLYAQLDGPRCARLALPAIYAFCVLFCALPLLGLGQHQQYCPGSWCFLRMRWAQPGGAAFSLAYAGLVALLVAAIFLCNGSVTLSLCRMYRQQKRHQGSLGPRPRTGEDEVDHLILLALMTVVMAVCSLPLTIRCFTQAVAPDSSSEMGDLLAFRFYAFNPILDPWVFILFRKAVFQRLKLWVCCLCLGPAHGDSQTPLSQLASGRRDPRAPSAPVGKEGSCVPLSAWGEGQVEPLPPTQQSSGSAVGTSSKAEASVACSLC

SMILES | NanoBRET Fold Response (PTGIR; 0.1μM tracer) | NanoBRET Fold Response (PTGIR; 1μM tracer) | NanoBRET Fold Response (CYSLTR2; 0.1μM tracer) | NanoBRET Fold Response (CYSLTR2; 1μM tracer) | NanoBRET Fold Response (SMO; 0.1μM tracer) | NanoBRET Fold Response (SMO; 1μM tracer) | NanoBRET Fold Response (CCR4; 0.1μM tracer) | NanoBRET Fold Response (CCR4; 1μM tracer) | NanoBRET Fold Response (TBXA2R; 0.1μM tracer) | NanoBRET Fold Response (TBXA2R; 1μM tracer) | NanoBRET Fold Response (HRH3; 0.1μM tracer) | NanoBRET Fold Response (HRH3; 1μM tracer) | NanoBRET Fold Response (PTGIR; tracer 0.1μM) | NanoBRET Fold Response (PTGIR; tracer 1μM) | NanoBRET Fold Response (CYSLTR2; tracer 0.1μM) | NanoBRET Fold Response (CYSLTR2; tracer 1μM) | NanoBRET Fold Response (SMO; tracer 0.1μM) | NanoBRET Fold Response (SMO; tracer 1μM) | NanoBRET Fold Response (CCR4; tracer 0.1μM) | NanoBRET Fold Response (CCR4; tracer 1μM) | also measured
CN1CCN(C2=Nc3cc(Cl)ccc3Nc3ccc(CNC(=O)CCOCCOCCOCCOCCNC(=O)CCc4ccc5n4[B-](F)(F)[N+]4=C(c6ccc[nH]6)C=CC4=C5)cc32)CC1 [Clozapine-b-2-NB590] | 0.98 | 1.00 | 1.01 | 1.03 | 1.13 | 0.80 | 1.04 | 0.96 | 0.98 | 1.08 | 0.98 | 1.06 | – | – | – | – | – | – | – | – | –
CN1CCN(C2=Nc3cc(Cl)ccc3N(CC(=O)NCCOCCOCCOCCOCCNC(=O)CCc3ccc4n3[B-](F)(F)[N+]3=C(c5ccc[nH]5)C=CC3=C4)c3ccccc32)CC1 [Clozapine-c-2-NB590] | 0.96 | 1.09 | 1.04 | 1.07 | 0.97 | 1.09 | 0.97 | 0.72 | 1.03 | 0.95 | 0.98 | 0.86 | – | – | – | – | – | – | – | – | –
O=C(CCOCCOCCOCCOCCNC(=O)CCc1ccc2n1[B-](F)(F)[N+]1=C(c3ccc[nH]3)C=CC1=C2)NCCCN1CCN(C2=Nc3ccccc3Oc3ccc(Cl)cc32)CC1 [Loxapine-a-2-NB590] | – | – | – | – | – | – | – | – | – | – | – | – | 0.99 | 1.04 | 0.91 | 1.02 | 0.98 | 1.15 | 1.03 | 1.19 | NanoBRET Fold Response (TBXA2R; tracer 0.1μM): 0.99; NanoBRET Fold Response (TBXA2R; tracer 1μM): 1.03; NanoBRET Fold Response (HRH3; tracer 0.1μM): 1.06; NanoBRET Fold Response (HRH3; tracer 1μM): 1.01
COc1ccccc1N1CCN(CCCCN2C(=O)c3ccc(CNC(=O)CCOCCNC(=O)c4ccc(CNC(=O)CCc5ccc6n5[B-](F)(F)[N+]5=C(c7ccc[nH]7)C=CC5=C6)cc4)cc3C2=O)CC1 [NAN-190-3-NB590] | – | – | – | – | – | – | – | – | – | – | – | – | 0.95 | 1.01 | 1.11 | 1.31 | 0.88 | 0.97 | 0.85 | 1.11 | NanoBRET Fold Response (TBXA2R; tracer 0.1μM): 1.08; NanoBRET Fold Response (TBXA2R; tracer 1μM): 1.15; NanoBRET Fold Response (HRH3; tracer 0.1μM): 1.38; NanoBRET Fold Response (HRH3; tracer 1μM): 0.93
